Source: patent publication EP1994923A2, “Cosmetic and dermatological compositions for dry skin” (Henkel AG & Co. KGaA, priority 2007, dated 2008)

Tested on: Aquaporine (AQ3)
Assay: Influence on aquaporin synthesis in a skin model (indirect immunohistology)
Assay type: cell-based
Settings: skin model as in WO 03/053394 A2; 10 mg/ml test solution (extracts: 10 mg dry substance per ml); added systemically to the medium every two days; frozen after 6 days; cryosections
Protocol: An einem Hautmodell, wie in WO 03/053394 A2 beschrieben, wurde der Einfluss folgender Substanzen auf die Aquaporinsynthese überprüft: • 1.) Ergothionein (10 mg/ml Testlösung) • 2.) Wässriger Extrakt aus Laminaria digitata (mit einem hohen Anteil an Laminarin; verwendet wurde das Handelsprodukt Phycojuvenine in einer solchen Menge, dass die Testlösung eine Konzentration von 10 mg Extrakt-Trockensubstanz pro ml aufwies) • 3.) Wässriges Proteinhydrolysat von Hefeproteinen (verwendet wurde das Handelsprodukt Biodynes TRF Powder von Arch Chemicals Inc. in einer von 10 mg Extrakt-Trockensubstanz pro ml Testlösung)
Die Hautmodelle wurden nach Ankunft in frisches Medium gesetzt. Nach Vorinkubation über Nacht wurden sie alle zwei Tage mit den Testsubstanzen behandelt, indem der Wirkstoff systemisch in das Medium gegeben wurde. Die Kulturen wurden nach 6 Tagen für Cryoschnitte bei -80 °C eingefroren. Zum Zeitpunkt 0 wurden Kontrollproben eingefroren.
Zum Nachweis von Aquaporinen (AQ3) wurde die indirekte Immunhistologie angewendet. Hierbei bindet ein unkonjungierter Primärantikörper an das Antigen. Anschließend wird ein Sekundärantikörper eingesetzt, der gegen den Primärantikörper gerichtet ist.

## C[N+](C)(C)[C@@H](Cc1cnc(S)[nH]1)C(=O)[O-] [Ergothionein, 2-Mercapto-N^αN^αN^α-trimethyl-L-histidinium-Betain]
  Aquaporinsynthese (Induktion der Aquaporine (AQ3)): stimulierten
